Laboratory results taken from patent publication US8664236B2, “1H-pyrrolo[2,3 b]-pyridine derivatives” (Merck Patent GmbH, priority 2010, dated 2014).
Read-outs that look alike come from different tables or passages of the source.

Experiments:
PDK1 (His6-PDK1(Δ1-50)) = PDK1 (His6-PDK1(Δ1-50)) (Homo sapiens (Human), UniProt O15530); experiment: Test for the inhibition of PDK1 (enzymatic, flashplate, 33P-ATP); type: biochemical
Protocol: 4. Test for the Inhibition of PDK1
The experimental batches are carried out in a flashplate system with 384 wells/microtitration plate.
The test substances are employed in corresponding concentrations (if desired in a dilution series). The control is carried out without test substance. The reaction is stopped using standard methods and washed. The activity of the kinase is measured via the incorporated radioactivity in top count. In order to determine the non-specific kinase reaction (blank value), the experimental batches are carried out in the presence of 100 nM staurosporine.
The radioactivity (decompositions per minute) of the blank value (no use of test substance in the presence of staurosporine) is subtracted from all other radioactivity values. The controls (kinase activity without test substance) are set equal to 100 percent and all other radioactivity values (after subtracting the blank value) are expressed set in relation thereto (for example in % of the control).

[1] = target: PDK1 kinase in PC3 cells (PKB phosphorylation at Thr 308) (Homo sapiens (Human), UniProt O15530); experiment: Cellular testing of PDK1 kinase inhibitors in PC3 cells (Luminex, phospho-T308-PKB); type: cell-based
PDK1 kinase in PC3 cells (PKB phosphorylation at Thr 308), sequence (O15530 whole entry): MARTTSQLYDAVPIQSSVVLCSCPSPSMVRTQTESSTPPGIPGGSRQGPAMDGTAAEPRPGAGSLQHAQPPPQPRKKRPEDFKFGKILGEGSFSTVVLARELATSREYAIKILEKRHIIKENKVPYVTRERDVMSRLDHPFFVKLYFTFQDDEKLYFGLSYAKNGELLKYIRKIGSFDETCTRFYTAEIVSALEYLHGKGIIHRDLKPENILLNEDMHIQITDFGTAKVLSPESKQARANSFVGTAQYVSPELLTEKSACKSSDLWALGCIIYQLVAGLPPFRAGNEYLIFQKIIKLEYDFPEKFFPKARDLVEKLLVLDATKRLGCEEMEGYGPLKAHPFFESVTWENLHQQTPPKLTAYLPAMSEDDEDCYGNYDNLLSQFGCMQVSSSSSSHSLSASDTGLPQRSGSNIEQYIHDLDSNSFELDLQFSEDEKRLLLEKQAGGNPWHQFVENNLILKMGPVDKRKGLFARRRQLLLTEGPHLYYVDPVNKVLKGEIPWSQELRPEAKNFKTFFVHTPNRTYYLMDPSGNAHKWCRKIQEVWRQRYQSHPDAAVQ
Protocol: Method for the Cellular Testing of PDK1 Kinase Inhibitors in PC3 Cells
The cellular assay for the determination of the PDK1 kinase activity is carried out as a Luminex assay in the 96-well format. PC3 cells are sown at 20,000 cells per well in 100 μl of medium (45% of […]/45% of Ham's F12/10% of FCS) and incubated on the following day for 30 min with a serial dilution of the test substance (7 concentrations) under serum-free conditions. The cells are subsequently lysed using 90 μl of lysis buffer (20 mM tris/HCl pH 8.0, 150 mM NaCl, 1% of NP40, 10% of glycerol, 1% of phosphatase inhibitor I, 1% of phosphatase inhibitor II, 0.1% of protease inhibitor cocktail III, 0.01% of benzonase) per well, and the lysates are separated off from insoluble cell constituents by means of centrifugation through a 96-well filter plate (0.65 μm). The lysates are incubated overnight at 4° C. with shaking with Luminex beads to which an anti-total PKB antibody is coupled. The detection is carried out on the following day by addition of a phospho-T308-PKB antibody and a species-specific […] secondary antibody. The detection of phospho-T308-PKB is carried out by measurement in a Luminex100 instrument by determination of 100 events per cavity in a measurement time of 60 sec. […] The values of the batches treated with test substance are calculated therefrom as percentage of control, and IC50 values are determined by means of RS1.

[2] = enzymatic PDK1 inhibition assay, read-out: enzymatic IC50
[3] = PKB phosphorylation at Thr 308 in PC3 cells, read-out: cellular IC50

PDK1 (His6-PDK1(Δ1-50)), sequence (O15530 51-556): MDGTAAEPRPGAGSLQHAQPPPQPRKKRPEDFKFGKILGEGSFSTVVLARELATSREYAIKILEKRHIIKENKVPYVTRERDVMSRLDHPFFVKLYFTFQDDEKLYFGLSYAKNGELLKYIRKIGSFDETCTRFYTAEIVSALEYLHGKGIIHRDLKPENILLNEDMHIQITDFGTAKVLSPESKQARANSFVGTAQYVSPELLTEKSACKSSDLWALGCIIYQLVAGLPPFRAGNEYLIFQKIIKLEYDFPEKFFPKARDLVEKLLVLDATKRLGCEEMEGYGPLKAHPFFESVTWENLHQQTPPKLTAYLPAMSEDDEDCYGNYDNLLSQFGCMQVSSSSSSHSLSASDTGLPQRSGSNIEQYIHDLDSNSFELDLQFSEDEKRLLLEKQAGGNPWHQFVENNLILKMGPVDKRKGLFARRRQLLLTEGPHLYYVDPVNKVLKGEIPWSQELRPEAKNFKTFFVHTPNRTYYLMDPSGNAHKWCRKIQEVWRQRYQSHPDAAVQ

IC50 (PDK1 (His6-PDK1(Δ1-50)); [2]) [nM] | IC50 [1, 3] [µM] | IC50 (PDK1 (His6-PDK1(Δ1-50)); Table I comparison, read-out: PDK1 inhibition assay enzymatic IC50) [nM] | IC50 ([1]; Table I comparison, values given in μM, read-out: PDK1 inhibition assay cellular IC50) [µM] | SMILES | IC50 (PDK1 (His6-PDK1(Δ1-50))) [nM]
5 | 0.023 | – | – | Cn1cc(-c2cnc3[nH]cc(-c4cc(N(CCO)c5ccccc5F)nc(N)n4)c3c2)cn1 [A26, 2-[{2-Amino-6-[5-(1-methyl-1H-pyrazol-4-yl)-1H-pyrrolo[2,3-b]-pyridin-3-yl]pyrimidin-4-yl)-(2-fluorophenyl)amino]ethanol] | –
34 | 0.28 | – | – | CN(c1cccc(F)c1)c1cc(-c2c[nH]c3ncc(-c4cnn(C)c4)cc23)nc(N)n1 [A1, N4-(3-Fluorophenyl)-N4-methyl-6-[5-(1-methyl-1H-pyrazol-4-yl)-1H-pyrrolo[2,3-b]pyridin-3-yl]pyrimidine-2,4-diamine] | –
30 | 0.4 | – | – | CC(C)n1cc(-c2cnc3[nH]cc(-c4cc(N(C)c5ccccc5Cl)nc(N)n4)c3c2)cn1 [A19, N4-(2-Chlorophenyl)-6-[5-(1-isopropyl-1H-pyrazol-4-yl)-1H-pyrrolo[2,3-b]pyridin-3-yl]-N4-methylpyrimidine-2,4-diamine] | –
11 | 0.52 | – | – | COCC(O)CN(c1ccccc1)c1cc(-c2c[nH]c3ncc(-c4cnn(C)c4)cc23)nc(N)n1 (stereo not drawn) [A21, 1-({2-Amino-6-[5-(1-methyl-1H-pyrazol-4-yl)-1H-pyrrolo[2,3-b]-pyridin-3-yl]pyrimidin-4-yl}phenylamino)-3-methoxypropan-2-ol] | –
– | 2.1 | – | – | CC(C)n1cc(-c2cnc3[nH]cc(-c4cc(N(CCO)c5ccccc5Cl)nc(N)n4)c3c2)cn1 [A15, 2-[{2-Amino-6-[5-(1-isopropyl-1H-pyrazol-4-yl)-1H-pyrrolo[2,3-b]pyridin-3-yl]pyrimidin-4-yl)-(2-chlorophenyl)amino]-ethanol] | –
16.5 | 0.8 | – | – | CN(c1ccccc1)c1cc(-c2c[nH]c3ncc(-c4cnn(C)c4)cc23)nc(N)n1 [A11, N4-Methyl-6-[5-(1-methyl-1H-pyrazol-4-yl)-1H-pyrrolo[2,3-b]-pyridin-3-yl]-N4-phenylpyrimidine-2,4-diamine] | –
51 | 0.53 | – | – | CCN(Cc1ccccc1)c1cc(-c2c[nH]c3ncc(-c4cnn(C)c4)cc23)nc(N)n1 [A14, N4-Benzyl-N4-ethyl-6-[5-(1-methyl-1H-pyrazol-4-yl)-1H-pyrrolo[2,3-b]pyridin-3-yl]pyrimidine-2,4-diamine] | –
5900 | > 10 | – | – | CC(C)n1cc(-c2cnc3[nH]cc(-c4cc(N5CCc6cc(F)ccc65)nc(N)n4)c3c2)cn1 [A18, 4-(5-Fluoro-2,3-dihydroindol-1-yl)-6-[5-(1-isopropyl-1H-pyrazol-4-yl)-1H-pyrrolo[2,3-b]pyridin-3-yl]pyrimidin-2-ylamine] | –
5 | > 10 | – | – | Cn1cc(-c2cnc3[nH]cc(-c4cc(N5CCOc6ccccc65)nc(N)n4)c3c2)cn1 [A27, 4-(2,3-Dihydrobenzo-1,4-oxazin-4-yl)-6-[5-(1-methyl-1H-pyrazol-4-yl)-1H-pyrrolo[2,3-b]pyridin-3-yl]pyrimidin-2-ylamine] | –
870 | 1.4 | – | – | Cn1cc(-c2cnc3[nH]cc(-c4cc(C5(c6ccc(Cl)cc6)CCCC5)nc(N)n4)c3c2)cn1 [A7, 4-[1-(4-Chlorophenyl)cyclopentyl]-6-[5-(1-methyl-1H-pyrazol-4-yl)-1H-pyrrolo[2,3-b]pyridin-3-yl]pyrimidin-2-ylamine] | –
69 | 0.47 | – | – | COC(=O)CN(c1ccc(Cl)cc1)c1cc(-c2c[nH]c3ncc(-c4cnn(C)c4)cc23)nc(N)n1 [A24, Methyl [{2-amino-6-[5-(1-methyl-1H-pyrazol-4-yl)-1H-pyrrolo-[2,3-b]pyridin-3-yl]pyrimidin-4-yl)-(4-chlorophenyl)amino]acetate] | –
46 | 0.12 | – | – | CCN(c1ccc(Cl)cc1)c1cc(-c2c[nH]c3ncc(-c4cnn(C)c4)cc23)nc(N)n1 [A13, N4-(4-Chlorophenyl)-N4-ethyl-6-[5-(1-methyl-1H-pyrazol-4-yl)-1H-pyrrolo[2,3-b]pyridin-3-yl]pyrimidine-2,4-diamine] | –
8.7 | 6.8 | 8.7 | 6.8 | Cn1cc(-c2cnc3[nH]cc(-c4cc(N(CCCN)c5ccccc5)nc(N)n4)c3c2)cn1 [A31, N4-(3-Aminopropyl)-6-[5-(1-methyl-1H-pyrazol-4-yl)-1H-pyrrolo[2,3-b]pyridin-3-yl]-N4-phenylpyrimidine-2,4-diamine] | –
155 | > 10 | – | – | CCN(c1cc(-c2c[nH]c3ncc(-c4cnn(C)c4)cc23)nc(N)n1)c1nncs1 [A20, N4-Ethyl-6-[5-(1-methyl-1H-pyrazol-4-yl)-1H-pyrrolo[2,3-b]pyridin-3-yl]-N4-1,3,4-thiadiazol-2-ylpyrimidine-2,4-diamine] | –

More lines, now with the values behind:

SMILES | IC50 (PDK1 (His6-PDK1(Δ1-50)); [2]) [nM] | IC50 [1, 3] [µM] | IC50 (PDK1 (His6-PDK1(Δ1-50)); Table I comparison, read-out: PDK1 inhibition assay enzymatic IC50) [nM] | IC50 ([1]; Table I comparison, values given in μM, read-out: PDK1 inhibition assay cellular IC50) [µM] | IC50 (PDK1 (His6-PDK1(Δ1-50))) [nM]
Cn1cc(-c2cnc3[nH]cc(-c4cc(C5(c6ccccc6F)CC5)nc(N)n4)c3c2)cn1 [A42, 4-[1-(2-Fluorophenyl)cyclopropyl]-6-[5-(1-methyl-1H-pyrazol-4-yl)-1H-pyrrolo[2,3-b]pyridin-3-yl]pyrimidin-2-ylamine] | 45.5 | 0.02 | – | – | –
CN(c1cc(-c2c[nH]c3ncc(-c4cnn(C)c4)cc23)nc(N)n1)c1ccccc1F [A9, N4-(2-Fluorophenyl)-N4-methyl-6-[5-(1-methyl-1H-pyrazol-4-yl)-1H-pyrrolo[2,3-b]pyridin-3-yl]pyrimidine-2,4-diamine] | 9.7 | 0.027 | – | – | –
Cn1cc(-c2cnc3[nH]cc(-c4cc(N(CCC#N)c5ccccc5Cl)nc(N)n4)c3c2)cn1 [A30, 3-[{2-amino-6-[5-(1-methyl-1H-pyrazol-4-yl)-1H-pyrrolo[2,3-b]-pyridin-3-yl]pyrimidin-4-yl}-(2-chlorophenyl)amino]propionitrile] | – | – | – | – | 9.1
CN(c1cccc(F)c1)c1cc(-c2c[nH]c3ncc(-c4cnn(C)c4)cc23)ncn1 [A30a] | – | 0.66 | – | – | –
CN(c1cccc(Cl)c1)c1cc(-c2c[nH]c3ncc(-c4cnn(C)c4)cc23)nc(N)n1 [A8, N4-(3-Chlorophenyl)-N4-methyl-6-[5-(1-methyl-1H-pyrazol-4-yl)-1H-pyrrolo[2,3-b]pyridin-3-yl]pyrimidine-2,4-diamine] | 51 | 0.2 | – | – | –
COc1ccc(N(C[C@H](O)CO)c2cc(-c3c[nH]c4ncc(-c5cnn(C)c5)cc34)nc(N)n2)cc1 [A5, (S)-3-[{2-Amino-6-[5-(1-methyl-1H-pyrazol-4-yl)-1H-pyrrolo-[2,3-b]pyridin-3-yl]pyrimidin-4-yl}-(4-methoxyphenyl)amino]-propane-1,2-diol] | 24 | 6.8 | – | – | –
Cn1cc(-c2cnc3[nH]cc(-c4cc(C(C)(C)c5ccccc5)nc(N)n4)c3c2)cn1 [A2, 4-(1-Methyl-1-phenylethyl)-6-[5-(1-methyl-1H-pyrazol-4-yl)-1H-pyrrolo[2,3-b]pyridin-3-yl]pyrimidin-2-ylamine] | 65 | 0.14 | – | – | –
COCCN(c1cc(-c2c[nH]c3ncc(-c4cnn(C)c4)cc23)nc(N)n1)c1ccccc1Cl [A29, N4-(2-Chlorophenyl)-N4-(2-methoxyethyl)-6-[5-(1-methyl-1H-pyrazol-4-yl)-1H-pyrrolo[2,3-b]pyridin-3-yl]pyrimidine-2,4-diamine] | 7 | 0.0255 | – | – | –
CCN(c1ccccc1)c1cc(-c2c[nH]c3ncc(-c4cnn(C)c4)cc23)nc(N)n1 [A12, N4-Ethyl-6-[5-(1-methyl-1H-pyrazol-4-yl)-1H-pyrrolo[2,3-b]-pyridin-3-yl]-N4-phenylpyrimidine-2,4-diamine] | 12 | 0.69 | – | – | –
Cn1cc(-c2cnc3[nH]cc(-c4cc(N(CCO)c5ccc(F)cc5F)nc(N)n4)c3c2)cn1 [A25, 2-[{2-Amino-6-[5-(1-methyl-1H-pyrazol-4-yl)-1H-pyrrolo[2,3-b]-pyridin-3-yl]pyrimidin-4-yl)-(2,4-difluorophenyl)amino]ethanol] | 6.5 | 0.035 | – | – | –
Cn1cc(-c2cnc3[nH]cc(-c4cc(N5CCc6cc(F)ccc65)nc(N)n4)c3c2)cn1 [A17, 4-(5-Fluoro-2,3-dihydroindol-1-yl)-6-[5-(1-methyl-1H-pyrazol-4-yl)-1H-pyrrolo[2,3-b]pyridin-3-yl]pyrimidin-2-ylamine] | 200 | > 10 | – | – | –
Cn1cc(-c2cnc3[nH]cc(-c4cc(C5(c6ccccc6)CC5)nc(N)n4)c3c2)cn1 [A3, 4-[5-(1-Methyl-1H-pyrazol-4-yl)-1H-pyrrolo[2,3-b]pyridin-3-yl]-6-(1-phenylcyclopropyl)pyrimidin-2-ylamine] | 59.5 | 0.11 | – | – | –
